# Source: patent US11576922B2, “CD73 inhibitors” (ORIC Pharmaceuticals, Inc., priority 2017, dated 2023)
# pIC50: −log10 of the molar value.
# Target: T1, CD73 (Homo sapiens, UniProt P21589)
# T1 sequence (P21589 27-549): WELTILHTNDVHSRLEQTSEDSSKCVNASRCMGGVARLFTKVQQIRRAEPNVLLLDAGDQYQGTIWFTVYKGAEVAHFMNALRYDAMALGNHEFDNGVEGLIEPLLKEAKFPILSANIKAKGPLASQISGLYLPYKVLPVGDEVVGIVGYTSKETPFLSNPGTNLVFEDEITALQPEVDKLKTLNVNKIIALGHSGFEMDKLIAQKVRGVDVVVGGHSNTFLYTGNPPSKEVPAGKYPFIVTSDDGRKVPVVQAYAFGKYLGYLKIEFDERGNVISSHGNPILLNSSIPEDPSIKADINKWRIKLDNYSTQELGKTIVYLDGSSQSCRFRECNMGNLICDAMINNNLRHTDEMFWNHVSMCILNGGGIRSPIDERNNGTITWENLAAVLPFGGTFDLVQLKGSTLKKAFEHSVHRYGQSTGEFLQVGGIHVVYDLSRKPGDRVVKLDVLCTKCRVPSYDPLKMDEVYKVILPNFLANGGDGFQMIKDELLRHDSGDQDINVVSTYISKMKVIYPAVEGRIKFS
# Test: Example A1: Biochemical Assay (CD73 inhibition, Malachite Green detection of AMP hydrolysis)
# Details: CD73 0.3208 nM, AMP 15 μM, Tris-HCl pH 7.4, Malachite Green, absorbance 620 nm; read-out: Biochemical IC50
# Experimental: Example A1: Biochemical Assay
# Assay Reaction Conditions
# • Assay Volume: 70 μl • Reaction Volume: 50 μl • CD73: 0.3208 nM • AMP: 15 μM • Assay Buffer: 2 5 mM Tris-HCL, pH 7.4, 0.01% Brij-35, 0.01% BSA, 5 mM MgCl2 Assay Procedure:
# Made dose titration of testing compounds in assay buffer, 10 points ½ log titrations in duplicates starting at 100 μM.
# Added 25 μl of CD73 to each well for a final concentration of […].
# Incubated at RT for 15 min.
# Added 25 μl of AMP to each well for a final concentration of 15 μM.
# Incubated at RT for 10 min.
# Added 10 μl of Malachite Green Reagent A, incubate at RT for 10 min.
# Added 10 μl of Malachite Green Reagent B, incubate at RT for 45 min.
# Read the Absorbance on Envision plate reader using excitation filter: Cy5 […].
# The ability of the compounds disclosed herein to inhibit CD73 activity was quantified and the respective IC50 values were determined. Table 1 provides the biochemical IC50 values of compounds disclosed herein.
row,SMILES,pIC50
1,"CN(c1nc(Cl)nc2c1nnn2[C@@H]1O[C@H](COP(=O)(O)CP(=O)(O)O)[C@@H](O)[C@H]1O)[C@H]1CCc2ccccc21 [Example 18, (((((2R,3S,4R,5R)-5-(5-chloro-7-(((S)-2,3-dihydro-1H-inden-1-yl)(methyl)amino)-3H-[1,2,3]triazolo[4,5-d]pyrimidin-3-yl)-3,4-dihydroxytetrahydrofuran-2-yl)methoxy)(hydroxy)phosphoryl)methyl) phosphonic acid]",> 7.00
2,"CCOP(=O)(CP(=O)(O)O)OC[C@H]1O[C@@H](n2nnc3c(NCc4ccccc4Cl)nc(Cl)nc32)[C@H](O)[C@@H]1O (stereo partly drawn) [Example 25, (((((2R,3S,4R,5R)-5-(5-chloro-7-((2-chlorobenzyl)amino)-3H-[1,2,3]triazolo[4,5-d]pyrimidin-3-yl)-3,4-dihydroxytetrahydrofuran-2-yl)methoxy)(ethoxy)phosphoryl)methyl) phosphonic acid]",6.00 to 7.00
3,"CO[P@@](=O)(CP(=O)(O)O)OC[C@H]1O[C@@H](n2nnc3c(NCc4ccccc4Cl)nc(Cl)nc32)[C@H](O)[C@@H]1O [Example 28, (((S)-(((2R,3S,4R,5R)-5-(5-chloro-7-((2-chlorobenzyl)amino)-3H-[1,2,3]triazolo[4,5-d]pyrimidin-3-yl)-3,4-dihydroxytetrahydrofuran-2-yl)methoxy)(methoxy)phosphoryl)methyl)phosphonic acid]",6.00 to 7.00
4,"O=P(O)(O)CP(=O)(O)OC[C@H]1O[C@@H](n2nnc3c(NCc4ccc(Cl)cc4)nc(Cl)nc32)[C@H](O)[C@@H]1O [Example 7, (((((2R,3S,4R,5R)-5-(5-chloro-7-((4-chlorobenzyl)amino)-3H-[1,2,3]triazolo[4,5-d]pyrimidin-3-yl)-3,4-dihydroxytetrahydrofuran-2-yl)methoxy)(hydroxy)phosphoryl)methyl) phosphonic acid]",> 7.00
5,"O=P(O)(O)CP(=O)(O)OC[C@H]1O[C@@H](n2nnc3c(NCc4cccc(Cl)c4)nc(Cl)nc32)[C@H](O)[C@@H]1O [Example 14, (((((2R,3S,4R,5R)-5-(5-chloro-7-((3-chlorobenzyl)amino)-3H-[1,2,3]triazolo[4,5-d]pyrimidin-3-yl)-3,4-dihydroxytetrahydrofuran-2-yl)methoxy)(hydroxy)phosphoryl)methyl) phosphonic acid]",> 7.00
6,"O=P(O)(O)CP(=O)(O)OC[C@H]1O[C@@H](n2nnc3c(NCc4ccccc4)nc(Cl)nc32)[C@H](O)[C@@H]1O [Example 1, (((((2R,3S,4R,5R)-5-(7-(Benzylamino)-5-chloro-3H-[1,2,3]triazolo[4,5-d]pyrimidin-3-yl)-3,4-dihydroxytetrahydrofuran-2-yl)methoxy)(hydroxy)phosphoryl)methyl)phosphonic acid]",6.00 to 7.00
7,"CN(Cc1ccccc1)c1nc(Cl)nc2c1nnn2[C@@H]1O[C@H](COP(=O)(O)CP(=O)(O)O)[C@@H](O)[C@H]1O [Example 15, (((((2R,3S,4R,5R)-5-(7-(benzyl(methyl)amino)-5-chloro-3H-[1,2,3]triazolo[4,5-d]pyrimidin-3-yl)-3,4-dihydroxytetrahydrofuran-2-yl)methoxy)(hydroxy)phosphoryl)methyl) phosphonic acid]",> 7.00
8,"COP(=O)(CP(=O)(O)O)OC[C@H]1O[C@@H](n2ncc3c(N(C)C4CCc5ccccc54)nc(Cl)nc32)[C@H](O)[C@@H]1O (stereo partly drawn) [Example 39, (((((2R,3S,4R,5R)-5-(6-Chloro-4-(((R)-2,3-dihydro-1H-inden-1-yl)(methyl)amino)-1H-pyrazolo[3,4-d]pyrimidin-1-yl)-3,4-dihydroxytetrahydrofuran-2-yl)methoxy)(methoxy)phosphoryl)methyl)phosphonic acid]",> 7.00
9,"C[C@@H](c1ccccc1)N(C)c1nc(Cl)nc2c1nnn2[C@@H]1O[C@H](COP(=O)(O)CP(=O)(O)O)[C@@H](O)[C@H]1O [Example 13, (((((2R,3S,4R,5R)-5-(5-chloro-7-(methyl((S)-1-phenylethyl)amino)-3H-[1,2,3]triazolo[4,5-d]pyrimidin-3-yl)-3,4-dihydroxytetrahydrofuran-2-yl)methoxy)(hydroxy)phosphoryl)methyl) phosphonic acid]",> 7.00
10,"CO[P@](=O)(CP(=O)(O)O)OC[C@H]1O[C@@H](n2nnc3c(NCc4ccccc4Cl)nc(Cl)nc32)[C@H](O)[C@@H]1O [Example 27, (((R)-(((2R,3S,4R,5R)-5-(5-Chloro-7-((2-chlorobenzyl)amino)-3H-[1,2,3]triazolo[4,5-d]pyrimidin-3-yl)-3,4-dihydroxytetrahydrofuran-2-yl)methoxy)(methoxy)phosphoryl)methyl)phosphonic acid]",6.00 to 7.00

# Continued, values first:
row,pIC50,SMILES
1,> 7.00,"CN(c1nc(Cl)nc2c1cnn2[C@@H]1O[C@H](COP(=O)(O)CP(=O)(O)O)[C@@H](O)[C@H]1O)[C@@H]1CCc2ccccc21 [Example 50, (((((2R,3S,4R,5R)-5-(6-chloro-4-(((R)-2,3-dihydro-1H-inden-1-yl)(methyl)amino)-1H-pyrazolo[3,4-d]pyrimidin-1-yl)-3,4-dihydroxytetrahydrofuran-2-yl)methoxy)(hydroxy)phosphoryl)methyl) phosphonic acid]"
2,> 7.00,"O=P(O)(O)CP(=O)(O)OC[C@H]1O[C@@H](n2nnc3c(N[C@H]4CCc5ccccc54)nc(Cl)nc32)[C@H](O)[C@@H]1O [Example 20, (((((2R,3S,4R,5R)-5-(5-chloro-7-(((S)-2,3-dihydro-1H-inden-1-yl)amino)-3H-[1,2,3]triazolo[4,5-d]pyrimidin-3-yl)-3,4-dihydroxytetrahydrofuran-2-yl)methoxy)(hydroxy)phosphoryl)methyl) phosphonic acid]"
3,> 7.00,"CN(c1nc(Cl)nc2c1nnn2[C@@H]1O[C@H](COP(=O)(O)CP(=O)(O)O)[C@@H](O)[C@H]1O)[C@@H]1CCc2ccccc21 [Example 19, (((((2R,3S,4R,5R)-5-(5-chloro-7-(((R)-2,3-dihydro-1H-inden-1-yl)(methyl)amino)-3H-[1,2,3]triazolo[4,5-d]pyrimidin-3-yl)-3,4-dihydroxytetrahydrofuran-2-yl)methoxy)(hydroxy)phosphoryl)methyl) phosphonic acid]"
4,> 7.00,"O=P(O)(O)CP(=O)(OCC1CC1)OC[C@H]1O[C@@H](n2nnc3c(NCc4ccccc4Cl)nc(Cl)nc32)[C@H](O)[C@@H]1O (stereo partly drawn) [Example 30, (((((2R,3S,4R,5R)-5-(5-chloro-7-((2-chlorobenzyl)amino)-3H-[1,2,3]triazolo[4,5-d]pyrimidin-3-yl)-3,4-dihydroxytetrahydrofuran-2-yl)methoxy) (cyclopropylmethoxy)phosphoryl)methyl) phosphonic acid]"
5,> 7.00,"O=P(O)(O)CP(=O)(O)OC[C@H]1OC(n2nnc3c(NC4CCc5ccccc54)nc(Cl)nc32)[C@H](O)[C@@H]1O (stereo in doubt) [Example 31, (((((2R,3S,4R,5S)-5-(5-chloro-7-(((R)-2,3-dihydro-1H-inden-1-yl)amino)-3H-[1,2,3]triazolo[4,5-d]pyrimidin-3-yl)-3,4-dihydroxytetrahydrofuran-2-yl)methoxy)(hydroxy)phosphoryl)methyl) phosphonic acid]"
6,6.00 to 7.00,"C[C@@H](Nc1nc(Cl)nc2c1cnn2[C@@H]1O[C@H](COP(=O)(O)CP(=O)(O)O)[C@@H](O)[C@H]1O)c1ccccc1Cl [Example 45, (((((2R,3S,4R,5R)-5-(6-chloro-4-(((R)-1-(2-chlorophenyl)ethyl)amino)-1H-pyrazolo[3,4-d]pyrimidin-1-yl)-3,4-dihydroxytetrahydrofuran-2-yl)methoxy)(hydroxy)phosphoryl)methyl) phosphonic acid]"
7,> 7.00,"O=P(O)(O)CP(=O)(O)OC[C@@H]1C[C@@H](O)[C@H](n2ncc3c(NCc4ccccc4Cl)nc(Cl)nc32)O1 [Example 48, (((((2S,4R,5R)-5-(6-chloro-4-((2-chlorobenzyl)amino)-1H-pyrazolo[3,4-d]pyrimidin-1-yl)-4-hydroxytetrahydrofuran-2-yl)methoxy)(hydroxy)phosphoryl)methyl) phosphonic acid]"
8,> 7.00,"CN(Cc1ccccc1)c1nc(Cl)nc2c1cnn2[C@@H]1O[C@H](COP(=O)(O)CP(=O)(O)O)C[C@H]1O [Example 47, (((((2S,4R,5R)-5-(4-(benzyl(methyl)amino)-6-chloro-1H-pyrazolo[3,4-d]pyrimidin-1-yl)-4-hydroxytetrahydrofuran-2-yl)methoxy)(hydroxy)phosphoryl)methyl) phosphonic acid]"
9,> 7.00,"Cc1nn([C@@H]2O[C@H](COP(=O)(O)CP(=O)(O)O)[C@@H](O)[C@H]2O)c2nc(Cl)nc(N(C)Cc3ccccc3)c12 [Example 43, (((((2R,3S,4R,5R)-5-(4-(benzyl(methyl)amino)-6-chloro-3-methyl-1H-pyrazolo[3,4-d]pyrimidin-1-yl)-3,4-dihydroxytetrahydrofuran-2-yl)methoxy)(hydroxy)phosphoryl)methyl) phosphonic acid]"
